Experimental data reported in patent US12421232B2, “Kinase inhibitor compounds and compositions and methods of use” (ICAHN SCHOOL OF MEDICINE AT MOUNT SINAI, priority 2018, dated 2025).
Where two headings read alike, the source gives them in different places.

What was measured:
Test in all cases: KINOMEscan Assay (DiscoverX)
Format in all cases: binding
Settings in all cases: read-out: % DMSO Ctrl
FLT3 = target: T1, FLT3 (Homo sapiens, UniProt P36888)
T1 construct: purchased DiscoverX
T1 sequence (P36888 27-993): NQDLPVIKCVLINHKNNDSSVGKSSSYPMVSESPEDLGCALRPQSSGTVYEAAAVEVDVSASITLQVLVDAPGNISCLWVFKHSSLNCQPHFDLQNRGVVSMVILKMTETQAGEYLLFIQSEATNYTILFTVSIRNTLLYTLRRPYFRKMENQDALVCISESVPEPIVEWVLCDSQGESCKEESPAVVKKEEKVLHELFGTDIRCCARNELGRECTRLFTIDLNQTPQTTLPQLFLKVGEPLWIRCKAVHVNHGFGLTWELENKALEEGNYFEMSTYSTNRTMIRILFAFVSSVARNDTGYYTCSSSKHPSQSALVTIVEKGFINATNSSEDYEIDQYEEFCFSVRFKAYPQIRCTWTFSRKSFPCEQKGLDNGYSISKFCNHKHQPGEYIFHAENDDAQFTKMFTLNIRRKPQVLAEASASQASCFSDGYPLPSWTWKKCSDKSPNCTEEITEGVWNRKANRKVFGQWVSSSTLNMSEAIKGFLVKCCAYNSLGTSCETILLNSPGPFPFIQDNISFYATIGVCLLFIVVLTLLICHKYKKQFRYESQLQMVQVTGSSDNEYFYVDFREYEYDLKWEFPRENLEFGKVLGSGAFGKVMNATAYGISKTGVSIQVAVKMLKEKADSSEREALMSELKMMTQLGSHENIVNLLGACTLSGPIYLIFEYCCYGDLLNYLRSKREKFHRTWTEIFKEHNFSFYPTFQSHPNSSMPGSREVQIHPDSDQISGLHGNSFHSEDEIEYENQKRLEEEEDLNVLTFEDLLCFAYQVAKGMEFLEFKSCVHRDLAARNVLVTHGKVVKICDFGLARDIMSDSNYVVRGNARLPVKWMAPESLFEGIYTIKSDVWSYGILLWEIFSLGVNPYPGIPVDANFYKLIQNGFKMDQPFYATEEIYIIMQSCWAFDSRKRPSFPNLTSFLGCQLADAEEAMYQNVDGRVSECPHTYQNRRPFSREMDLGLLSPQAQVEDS

IRAK4 = target: T2, IRAK4 (Homo sapiens, UniProt Q9NWZ3)
T2 construct: purchased DiscoverX
T2 sequence (Q9NWZ3 1-460): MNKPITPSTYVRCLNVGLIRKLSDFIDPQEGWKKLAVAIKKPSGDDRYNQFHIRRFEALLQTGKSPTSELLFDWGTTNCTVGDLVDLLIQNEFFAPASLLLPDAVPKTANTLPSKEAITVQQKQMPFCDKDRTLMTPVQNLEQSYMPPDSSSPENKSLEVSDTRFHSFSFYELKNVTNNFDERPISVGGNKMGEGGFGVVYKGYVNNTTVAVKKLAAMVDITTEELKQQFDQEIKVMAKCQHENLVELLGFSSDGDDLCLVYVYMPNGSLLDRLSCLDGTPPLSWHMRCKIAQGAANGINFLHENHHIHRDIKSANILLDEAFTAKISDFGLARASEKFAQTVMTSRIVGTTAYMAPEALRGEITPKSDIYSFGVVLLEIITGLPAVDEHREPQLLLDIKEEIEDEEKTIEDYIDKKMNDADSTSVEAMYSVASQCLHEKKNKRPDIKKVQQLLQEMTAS

PIK3CG = target: T3, PIK3CG (Homo sapiens, UniProt P48736)
T3 construct: purchased DiscoverX

PIM3 = target: T4, PIM3 (Homo sapiens, UniProt Q86V86)
T4 construct: purchased DiscoverX

PIP5K2C = target: T5, PIP5K2C (Homo sapiens, UniProt Q8TBX8)
T5 construct: purchased DiscoverX
T5 sequence (Q8TBX8 1-421): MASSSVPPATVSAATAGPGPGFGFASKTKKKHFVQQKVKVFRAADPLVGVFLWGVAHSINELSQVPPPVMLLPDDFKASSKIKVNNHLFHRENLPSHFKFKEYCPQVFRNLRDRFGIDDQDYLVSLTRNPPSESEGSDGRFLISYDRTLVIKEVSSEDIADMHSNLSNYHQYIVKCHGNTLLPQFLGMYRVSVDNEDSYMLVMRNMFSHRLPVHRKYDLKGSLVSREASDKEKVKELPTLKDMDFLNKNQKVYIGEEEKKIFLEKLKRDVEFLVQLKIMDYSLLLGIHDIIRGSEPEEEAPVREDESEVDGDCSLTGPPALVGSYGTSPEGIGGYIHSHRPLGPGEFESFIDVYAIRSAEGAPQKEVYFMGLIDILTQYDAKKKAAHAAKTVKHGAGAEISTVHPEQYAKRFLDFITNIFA

DYRK1B = target: T6, DYRK1B (Homo sapiens, UniProt Q9Y463)
T6 construct: purchased DiscoverX
T6 sequence (Q9Y463 whole entry): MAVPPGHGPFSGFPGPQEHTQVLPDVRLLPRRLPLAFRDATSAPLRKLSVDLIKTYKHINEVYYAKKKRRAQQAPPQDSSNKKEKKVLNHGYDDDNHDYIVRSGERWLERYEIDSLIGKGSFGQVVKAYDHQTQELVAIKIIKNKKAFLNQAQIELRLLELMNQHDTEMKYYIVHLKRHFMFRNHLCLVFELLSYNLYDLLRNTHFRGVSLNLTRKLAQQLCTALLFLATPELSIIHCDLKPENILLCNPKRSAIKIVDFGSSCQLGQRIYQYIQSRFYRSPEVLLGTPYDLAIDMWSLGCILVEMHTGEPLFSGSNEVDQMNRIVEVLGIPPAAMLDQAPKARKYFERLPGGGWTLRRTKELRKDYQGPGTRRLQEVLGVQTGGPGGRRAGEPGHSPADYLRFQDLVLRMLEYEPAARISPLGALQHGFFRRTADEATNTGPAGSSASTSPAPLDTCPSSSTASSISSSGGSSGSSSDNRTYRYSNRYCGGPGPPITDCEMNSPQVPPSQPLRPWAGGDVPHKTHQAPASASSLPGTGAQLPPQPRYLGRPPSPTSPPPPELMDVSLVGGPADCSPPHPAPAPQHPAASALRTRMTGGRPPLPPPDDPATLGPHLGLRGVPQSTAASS

T3 sequence (P48736 whole entry): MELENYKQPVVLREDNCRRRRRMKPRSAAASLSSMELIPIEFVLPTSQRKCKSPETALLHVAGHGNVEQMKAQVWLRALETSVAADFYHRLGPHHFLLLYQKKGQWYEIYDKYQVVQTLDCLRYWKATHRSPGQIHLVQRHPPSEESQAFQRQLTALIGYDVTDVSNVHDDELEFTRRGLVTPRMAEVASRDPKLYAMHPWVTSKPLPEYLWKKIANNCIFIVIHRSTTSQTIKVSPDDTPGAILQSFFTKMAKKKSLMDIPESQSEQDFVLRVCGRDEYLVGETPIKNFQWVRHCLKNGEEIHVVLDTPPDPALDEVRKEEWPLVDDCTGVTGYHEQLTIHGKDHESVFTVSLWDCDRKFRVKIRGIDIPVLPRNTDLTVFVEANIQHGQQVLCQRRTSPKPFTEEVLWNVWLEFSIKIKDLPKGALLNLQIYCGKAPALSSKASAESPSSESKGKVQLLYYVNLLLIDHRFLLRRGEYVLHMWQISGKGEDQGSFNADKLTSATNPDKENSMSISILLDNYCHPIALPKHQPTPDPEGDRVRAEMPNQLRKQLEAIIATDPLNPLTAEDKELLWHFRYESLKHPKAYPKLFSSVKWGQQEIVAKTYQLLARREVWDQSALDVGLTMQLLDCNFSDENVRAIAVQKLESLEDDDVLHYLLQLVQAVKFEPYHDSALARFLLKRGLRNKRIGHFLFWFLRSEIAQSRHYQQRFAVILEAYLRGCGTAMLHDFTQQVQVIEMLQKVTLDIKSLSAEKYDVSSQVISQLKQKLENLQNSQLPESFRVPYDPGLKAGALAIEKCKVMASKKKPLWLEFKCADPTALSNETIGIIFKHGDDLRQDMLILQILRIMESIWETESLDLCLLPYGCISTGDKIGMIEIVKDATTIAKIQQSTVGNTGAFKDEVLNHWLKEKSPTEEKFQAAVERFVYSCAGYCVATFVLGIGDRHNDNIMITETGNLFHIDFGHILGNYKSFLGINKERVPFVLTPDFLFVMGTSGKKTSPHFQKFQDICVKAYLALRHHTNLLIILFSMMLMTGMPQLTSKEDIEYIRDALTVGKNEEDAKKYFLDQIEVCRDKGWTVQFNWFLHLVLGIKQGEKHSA

| SMILES | remaining binding at 10 µM (FLT3; FLT3, 10 μM) [%] | remaining binding at 10 µM (IRAK4; IRAK4, 10 μM) [%] | remaining binding at 10 µM (PIK3CG; PIK3CG, 10 μM) [%] | remaining binding at 10 µM (PIM3; PIM3, 10 μM) [%] | remaining binding at 10 µM (PIP5K2C; PIP5K2C, 10 μM) [%] | remaining binding at 10 µM (DYRK1B) [%] | remaining binding at 10 µM (FLT3) [%] | remaining binding at 10 µM (IRAK4) [%] | remaining binding at 10 µM (PIK3CG) [%] | remaining binding at 10 µM (PIM3) [%] | remaining binding at 10 µM (PIP5K2C) [%] | remaining binding at 10 µM (DYRK1B; DYRK1B, 10 μM) [%] |
| --- | --- | --- | --- | --- | --- | --- | --- | --- | --- | --- | --- | --- |
| COc1ccc2c(c1)[nH]c1c(C)nc(CO)cc12 [Compound 2-8, (1-Methyl-7-methoxy-9H-pyrido[3,4-b]indol-3-yl)methanol] | 100 | 70 | 67 | 15 | 5 |  |  |  |  |  |  |  |
| COc1ccc2c3ccnc(C)c3n(CCCc3noc(N)n3)c2c1 [Compound 20-13, 3-(3-(7-Methoxy-1-methyl-β-carbolin-9-yl)propyl)-5-amino-1,2,4-oxadiazole] |  |  |  |  |  | 1 | 86 | 90 | 3.3 | 39 | 13 |  |
| C#CCn1c2cc(OC)ccc2c2ccnc(C)c21 [Compound 20-23a, 3-(7-Methoxy-1-methyl-β-carbolin-9-yl)-propan-1-yne] |  |  |  | 32 |  |  | 65 | 6.4 | 42 |  | 41 | 1.1 |
| COc1ccc2c(c1)[nH]c1c(C)nccc12 [Harmine, reference compound] |  |  |  |  |  | 6.1 |  |  |  | 43 |  |  |
